Test results as given in patent publication US8017828B2, “Utilization of rare sugars in plant or microorganism” (Shikoku Research Institute Incorporated, priority 2004, dated 2011).

Assays:
[1] = test system: Aspergillus niger, Cladosporium cladosporioides and Penicillium chrysogenum; test: Mycelial elongation of filamentous fungi on agar with rare sugar; assay type: cell-based; details: 0.05% (w/v) in agar medium, 25° C., 4 days
Experimental: By using as targets, Aspergillus niger, Cladosporium cladosporioides and Penicillium chrysogenum, which are typical filamentous fungi and generally seen in a living environment, an effect of a rare sugar on mycelial elongation was examined.
As the test fungal strains, NBRC 4066 strain, NBRC 4459 strain and NBRC 4626 strain were used.
Each test fungal strain was cultured on a potato dextrose agar medium at 25° C. for 7 days, and one in which the mycelium extended over the surface of the dish was pushed out along with the agar medium in such a manner that the agar medium was in a disc form with a diameter of 1.1 cm, which was placed at the center of a dish filled with an agar medium (1% Bacto agar) supplemented with any of a variety of rare sugars (allitol, D-altrose, L-mannose, L-galactose, D-tagatose, D-sorbose, D-psicose, D-allose, D-glucose and D-fructose) at 0.05% (w/v) and cultured at 25° C. for 4 days. After the cultivation, the length of the mycelium extending on the surface of the culture medium was measured. Two culture media were prepared for each test plot, and the mycelial length represents the average thereof.

[2] = test system: seeds of vegetables, ornamental plants, herbs, fruit trees, grains and feed crops; test: Seed germination, continuous treatment (Experiment 1); assay type: in vivo
Description: Seeds of vegetables (11 families and 51 species or varieties); ornamental plants (19 families and 47 species or varieties); […] (4 families and 14 species or varieties); fruit trees (3 families and 3 species or varieties); grains (1 family and 3 species or varieties); and feed crops (1 family and 3 species or varieties) were continuously treated with any of 4 types of solutions of deionized water (control), 1% D-fructose, 1% D-psicose and 0.5% D-fructose+0.5% D-psicose and germinated under the condition of 25° C., 35 μmol·m^−2·s^−1, and 16-hour lighting or 16-hour dark. As for the number of seeds, 50 seeds were used for each solution basically, and when the number of seeds was small, the seeds were distributed in such a manner that the number of seeds for each solution became equal. The seeds were sown in a dish with a diameter of 9 cm having a filter paper placed therein or when the seeds were large, they were sown in a styrol container with a diameter of 10 cm and a height of 45 mm. Then, 10 ml or 50 ml of any of the solutions was poured therein, and deionized water was suitably added depending on the transpiration.

[3] = test system: strawberry plant (variety: “smile ruby”); test: Growth of strawberry seedlings in tissue culture medium with sugar; assay type: in vivo; details: for Underground part weight / Number of lateral buds / Aerial part weight / Root length: 0.1% (w/v) in medium; for Underground part weight: without addition 0.5; for Number of lateral buds: without addition 0.6; for Aerial part weight: without addition 1.8; for Root length: without addition 8.7; for Plant length: 0.1% (w/v) in ½ strength MS medium, without addition 3.0
Experimental: Seedlings of a strawberry plant (variety: “smile ruby”) obtained by meristem culture under sterile conditions were used in an experiment.
As for the strawberry, by using ½ strength MS medium supplemented with 0.1% (w/v) D-psicose or D-glucose, the seedling plants were aseptically transplanted on Oct. 14, 2003, and then, cultivation was carried out in a culture chamber at 25° C. and 5,000 Lux (12-hour day length). Then, on Jan. 20, 2004, a survey was carried out with regard to the growth conditions of aerial part and underground part, the number of lateral buds and the like.

Vitis kiusiana Momiyama = test: Bud flush of dormant branch cuttings of wild grape; assay type: in vivo
Experimental: Matured branches of a Japanese wild grape Vitis kiusiana Momiyama, in which rooting of cuttings is difficult (Mochioka et al., Plant Tissue Culture 13: 139-145, 1996; Journal of ASEV JAPAN 13: 2-8, 2002) and dormancy of buds is deep (Mochioka et al., Journal of Japanese Society for Horticultural Science, 65: 49-54, 1996) were collected in January during the dormant stage, and stored under refrigeration in such a manner that they were not dried. On March 11, they were prepared to have one bud. After each cutting base was immersed in a 3% aqueous solution of D-psicose (supplemented with a spreading agent, Approach BI at 0.2%) for 24 hours, on the following day March 12, it was planted in a Vermiculite bed and placed in a temperature-controlled chamber at 25° C. and 16-hour day length, and the bud flush rate with time was measured. The timing of bud flush was determined to be a time when bud scale leaves fall off and about 50% of the tomentum that protects the bud appears. In a control plot, the cutting base was immersed in distilled water supplemented with 0.2% Approach BI for 24 hours, and then, subjected to the same treatment as described above.
In the survey of the bud flush rate, 9 cuttings were used for each plot and the procedure was repeated three times and an average was obtained.

[4] = test system: tomato (Home Momotaro), sunny lettuce (Red Wave), morning glory (Tairin Zaki Kongo); test: Seed germination, short-time and continuous treatment (Experiment 2); assay type: in vivo; details: continuous treatment with 1%
Experimental: In order to clarify an effect of a short-time treatment, 50 seeds of Salsola komarovii, tomato (Home Momotaro) and sunny lettuce (Red Wave), and 20 seeds of morning glory (Tairin Zaki Kongo) were immersed in any of deionized water, 1% D-psicose, 1% D-allose and 1% L-galactose for 24 hours (25° C., dark), respectively, then, they were lightly washed with deionized water. Then, the seeds were sown in a dish with a diameter of 9 cm having a filter paper placed therein, and germinated under the same condition by poring 5 to 10 ml of deionized water therein. Further, for the comparison, a continuous treatment with 1% D-psicose was carried out in accordance with the same procedure.

[5] = 1% continuous, 41 species listed

## O=C[C@H](O)[C@H](O)[C@H](O)[C@H](O)CO [D-allose]
[1]
  effect on mycelial elongation: have an effect of inhibiting mycelial elongation

## O=C(CO)[C@@H](O)[C@H](O)[C@H](O)CO [D-fructose, reference compound]
[2]; 0.5% D-fructose+0.5% D-psicose, 32 species listed
  effect on inhibition of germination by D-psicose: Mitigated
[2]; [5]
  germination: Inhibited
[2]; 1% continuous, Lemon Balm and Green Pea (2 species)
  germination: Promoted

## O=C[C@H](O)[C@@H](O)[C@H](O)[C@H](O)CO [D-glucose, reference compound]
[3]
  Underground part weight: 1.2 g
  Number of lateral buds: 1.0
  Aerial part weight: 3.0 g
  Root length: 8.7 cm
  Plant length: 4.3 cm

## O=C(CO)[C@H](O)[C@H](O)[C@H](O)CO [D-psicose]
Vitis kiusiana Momiyama; 3% aqueous solution 24 hours, whole period
  bud flush rate compared with control plot: higher
Vitis kiusiana Momiyama; cutting base immersed in 3% aqueous solution 24 hours, control mid-April
  timing of bud flush: from late March
[3]
  Underground part weight: 1.9 g
  Number of lateral buds: 1.3
  Aerial part weight: 3.1 g
  Root length: 7.2 cm
  Plant length: 4.5 cm
[2]; 1% continuous, 32 species listed
  germination: Inhibition of Germination
[2]; [5]
  germination: Inhibited
[2]; 1% continuous, Diospyros kaki
  elongation of roots: inhibited
[2]; 1% continuous, Myosotis scorpioides and Chinese lantern plant (2 species)
  germination: Significantly Inhibited
[2]; 1% continuous, Salsola komarovii, Diospyros kaki, Clarkia amoena (3 species)
  germination: Not Affected or was Promoted Slightly
[2]; many plants in the Brassica family
  germination: inhibited
[4]
  germination: inhibited
[1]
  effect on mycelial elongation: have an effect of inhibiting mycelial elongation
